Reference: article PMC5270475, “Structural Characterization and Ligand/Inhibitor Identification Provide Functional Insights into the Mycobacterium tuberculosis Cytochrome P450 CYP126A1” (The Journal of Biological Chemistry, 2016)

Target: T1, CYP126A1 (Mycobacterium tuberculosis, UniProt P9WPN9)
T1 construct: gene cyp126
Test: UV-visible absorbance titration (heme Soret shift)
Format: binding

T1 sequence (P9WPN9 whole entry): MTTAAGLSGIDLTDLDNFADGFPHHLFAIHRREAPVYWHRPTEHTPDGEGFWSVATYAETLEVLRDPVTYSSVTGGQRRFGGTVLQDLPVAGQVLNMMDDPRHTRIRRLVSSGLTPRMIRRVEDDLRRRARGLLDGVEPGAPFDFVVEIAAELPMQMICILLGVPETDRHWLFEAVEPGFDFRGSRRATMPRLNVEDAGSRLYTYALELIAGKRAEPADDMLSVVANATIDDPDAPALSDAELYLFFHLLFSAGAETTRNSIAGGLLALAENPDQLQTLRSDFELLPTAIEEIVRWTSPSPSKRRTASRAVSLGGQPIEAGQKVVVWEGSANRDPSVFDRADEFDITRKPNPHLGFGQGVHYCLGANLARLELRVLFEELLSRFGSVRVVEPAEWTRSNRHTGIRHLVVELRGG

| SMILES | Kd [µM] |
| --- | --- |
| CC(=O)N1CCN(c2ccc(OC[C@H]3CO[C@](Cn4ccnc4)(c4ccc(Cl)cc4Cl)O3)cc2)CC1 (racemic) [Ketoconazole] | 0.34 ± 0.07 |
| Clc1ccccc1C(c1ccccc1)(c1ccccc1)n1ccnc1 [Clotrimazole] | 3.9 ± 0.4 |
| Clc1ccc(COC(Cn2ccnc2)c2ccc(Cl)cc2Cl)cc1 (centres unmarked) [Econazole] | 4 ± 0.6 |
| c1c[nH]cn1 [Imidazole] | 2590 ± 60 |
| Clc1ccc(COC(Cn2ccnc2)c2ccc(Cl)cc2Cl)c(Cl)c1 (centres unmarked) [Miconazole] | 1.3 ± 0.2 |
| O=C(NCCCn1ccnc1)NC12CC3CC(CC(C3)C1)C2 [compound 7, Compound 7] | 4.13 ± 0.61 |
| Cn1c(-c2ccc(-c3nc4ccccc4[nH]3)cc2)nc2cc(N)ccc21 [compound 8, Compound 8] | 11 ± 0.6 |
| O=C(O)C1CSC(c2cc3ccccc3nc2Cl)N1 (centres unmarked) [compound 9, Compound 9] | 16.4 ± 0.7 |
